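48-hour exposure; five concentrations; linearly interpolated endpoints. GI50 = concentration required for 50% inhibition of growth.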 Activity calls are given as the source filed them. No stated cut-off is given here; in the data, active = GI50 up to about 1.1 µM and inactive = higher.
Columns and labels:
Experiment in all cases: NCI anticancer screen, dose series, 48 h
[1] = system: A549
[2] = system: HT-29
[3] = system: M19-MEL
[4] = system: NCI-H226
[5] = system: NCI-H23
[6] = system: OVCAR-3
[7] = system: OVCAR-4
[8] = system: SF-268
[9] = system: SK-MEL-5
[10] = system: SNB-78
[11] = system: UO-31
[12] = system: XF498
[13] = system: HL-60
[14] = system: SF-539
[15] = system: DU-145
[16] = system: HOP-62
[17] = system: MDA-MB-435
[18] = system: MDA-N
[19] = system: NCI/ADR-RES
[20] = system: PC-3

Row | SMILES | GI50 [1] | GI50 [2] | GI50 [3] | GI50 [4] | GI50 [5] | GI50 [6] | GI50 [7] | GI50 [8] | GI50 [9] | GI50 [10] | GI50 [11] | GI50 [12] | GI50 [13] | GI50 [14] | GI50 [15] | GI50 [16] | GI50 [17] | GI50 [18] | GI50 [19] | GI50 [20]
1 | O=C(O)C1CCC(=O)N1C(=O)COc1cc(Cl)c(Cl)cc1Cl (centres undefined) | > 100 µM (inactive) | > 100 µM (inactive) | > 100 µM (inactive) | > 100 µM (inactive) | > 100 µM (inactive) | > 100 µM (inactive) | > 100 µM (inactive) | > 100 µM (inactive) | > 100 µM (inactive) | > 100 µM (inactive) | > 100 µM (inactive) | > 100 µM (inactive) | – | – | – | – | – | – | – | –
2 | CCOC(=O)C(C(=O)OCC)c1cc(-c2cc3ccccc3o2)oc(=O)c1C#N | 33.4 µM (inactive) | 18.6 µM (inactive) | – | 21.1 µM (inactive) | 16 µM (inactive) | – | 26.5 µM (inactive) | 34.9 µM (inactive) | 32.5 µM (inactive) | 18 µM (inactive) | 32.2 µM (inactive) | 19 µM (inactive) | 29.7 µM (inactive) | 19.3 µM (inactive) | – | – | – | – | – | –
3 | CCOC(=O)C(OP(=O)(OCC)OCC)C(F)(F)F (centres undefined) | – | > 100 µM (inactive) | – | > 100 µM (inactive) | > 100 µM (inactive) | > 100 µM (inactive) | – | > 100 µM (inactive) | – | – | > 100 µM (inactive) | – | > 100 µM (inactive) | > 100 µM (inactive) | > 100 µM (inactive) | > 100 µM (inactive) | > 100 µM (inactive) | > 100 µM (inactive) | – | –
4 | N#Cc1ccccc1NC(=O)C(=O)C(C(=O)c1ccccc1F)C1OC(=O)c2ccccc21 (centres undefined) | 70.8 µM (inactive) | 40 µM (inactive) | 29.7 µM (inactive) | 18.4 µM (inactive) | 40.4 µM (inactive) | – | 65 µM (inactive) | 40.1 µM (inactive) | 89.3 µM (inactive) | 25.8 µM (inactive) | 43.8 µM (inactive) | 84.7 µM (inactive) | 20.9 µM (inactive) | 24.8 µM (inactive) | – | 66.8 µM (inactive) | – | – | – | –
5 | Clc1ccccc1/C=C/c1cscn1 | – | > 100 µM (inactive) | > 100 µM (inactive) | – | > 100 µM (inactive) | > 100 µM (inactive) | > 100 µM (inactive) | > 100 µM (inactive) | – | > 100 µM (inactive) | 88.1 µM (inactive) | > 100 µM (inactive) | > 100 µM (inactive) | > 100 µM (inactive) | – | > 100 µM (inactive) | – | – | – | –
6 | Cc1cccc(C(O)c2cccnc2)c1O (centres undefined) | > 100 µM (inactive) | > 100 µM (inactive) | – | > 100 µM (inactive) | > 100 µM (inactive) | > 100 µM (inactive) | – | > 100 µM (inactive) | 76.4 µM (inactive) | – | > 100 µM (inactive) | – | > 100 µM (inactive) | > 100 µM (inactive) | > 100 µM (inactive) | > 100 µM (inactive) | > 100 µM (inactive) | > 100 µM (inactive) | > 100 µM (inactive) | > 100 µM (inactive)
7 | CC(C)=CCC(OC(=O)C=C(C)C)c1cc(O)c2c(c1O)C(=O)C=CC2=O (centres undefined) | 5.04 µM (inactive) | 1.67 µM (inactive) | 0.621 µM (active) | 2.97 µM (inactive) | – | 0.839 µM (active) | 0.78 µM (active) | 1.39 µM (inactive) | 0.883 µM (active) | 2.07 µM (inactive) | 3.3 µM (inactive) | 0.809 µM (active) | 0.0419 µM (active) | 2.3 µM (inactive) | – | 12.8 µM (inactive) | – | – | 0.406 µM (active) | –
8 | Nc1nnc2ccc(Cl)cc2[n+]1[O-] | – | 42.4 µM (inactive) | – | > 100 µM (inactive) | 30.1 µM (inactive) | – | – | 38 µM (inactive) | 31 µM (inactive) | – | > 100 µM (inactive) | – | 29.3 µM (inactive) | – | > 100 µM (inactive) | > 100 µM (inactive) | 57 µM (inactive) | 37.6 µM (inactive) | 40.1 µM (inactive) | > 100 µM (inactive)
9 | O=c1c(-c2ccccc2)c(SCCN2CCCCCC2)n(-c2ccccc2)c(=S)n1-c1ccccc1 | – | – | – | 94.8 µM (inactive) | 68.9 µM (inactive) | 32.7 µM (inactive) | 15.5 µM (inactive) | – | 23.2 µM (inactive) | – | – | – | 11 µM (inactive) | > 100 µM (inactive) | 23.6 µM (inactive) | 46.6 µM (inactive) | 33 µM (inactive) | – | 68.2 µM (inactive) | –
10 | CC1=CC[C@H](C)C(C)(C)C1/C=C/C(C)=C/CC[C@@]1(CO)[C@H](CCCO)/C(=C(/C)C=O)CC[C@]1(C)O (some centres undefined) | 0.877 µM (active) | 2.77 µM (inactive) | 17.2 µM (inactive) | 1.9 µM (inactive) | 10.2 µM (inactive) | – | – | 7.46 µM (inactive) | 0.513 µM (active) | 13.2 µM (inactive) | 8.45 µM (inactive) | 7.41 µM (inactive) | 0.897 µM (active) | 6.78 µM (inactive) | – | – | – | – | – | –
11 | COc1cc(/N=N\c2ccc(OC)c(S(=O)(=O)O)c2)c(C)cc1/N=N\c1ccc(/C=C/c2ccc(/N=[N+](/[O-])c3ccc(/C=C/c4ccc(/N=N/c5cc(C)c(/N=N\c6ccc(OC)c(S(=O)(=O)O)c6)cc5OC)cc4S(=O)(=O)O)c(S(=O)(=O)O)c3)cc2S(=O)(=O)O)c(S(=O)(=O)O)c1 | > 100 µM (inactive) | > 100 µM (inactive) | > 100 µM (inactive) | > 52.1 µM (inactive) | > 100 µM (inactive) | > 100 µM (inactive) | > 100 µM (inactive) | > 100 µM (inactive) | > 100 µM (inactive) | > 100 µM (inactive) | > 100 µM (inactive) | > 100 µM (inactive) | 69.8 µM (inactive) | > 100 µM (inactive) | – | > 100 µM (inactive) | – | – | > 100 µM (inactive) | –
12 | Cc1ccc(NC(=O)S(N)(c2ccc(C)cc2)[N+](=O)[O-])cc1 (centres undefined) | – | > 100 µM (inactive) | – | > 100 µM (inactive) | > 100 µM (inactive) | > 100 µM (inactive) | > 100 µM (inactive) | – | > 100 µM (inactive) | – | 75 µM (inactive) | – | 10 µM (inactive) | – | 89.7 µM (inactive) | > 100 µM (inactive) | > 100 µM (inactive) | > 100 µM (inactive) | > 100 µM (inactive) | > 100 µM (inactive)
